In BigSolDB 2.1:

CC(C)(C)OC(=O)N[C@@H](CCC(N)=O)C(=O)O
solubility (mole fraction)
Conditions	283.15 K	288.15 K	293.15 K	298.15 K	303.15 K	308.15 K	313.15 K	318.15 K	323.15 K
in 2-butanone	0.0208	0.0219	0.0247	0.0294	0.035	0.0408	0.0517	0.068	0.0995
in acetone	0.0586	0.0675	0.0797	0.0959	0.105	0.127	0.146	0.168	0.187
in acetonitrile	0.00293	0.00389	0.00493	0.0064	0.008	0.0113	0.0165	0.0243	0.0356
in ethanol	0.13	0.139	0.148	0.155	0.165	0.177	0.191	0.202	–
in ethyl acetate	0.00199	0.00241	0.00301	0.00377	0.00475	0.00596	0.00774	0.0102	0.0145
in isobutanol	0.0317	0.0398	0.0479	0.055	0.0676	0.0766	0.0843	0.0943	0.108
in isopropanol	0.0536	0.0626	0.0789	0.0922	0.108	0.124	0.153	0.175	0.198
in methyl acetate	0.00534	0.00588	0.00699	0.00843	0.0115	0.0173	0.0254	0.0393	0.0649
in n-butanol	0.0427	0.0487	0.0554	0.0649	0.0748	0.0924	0.119	0.146	–
in n-pentanol	0.0343	0.0352	0.0382	0.0417	0.0481	0.0573	0.07	0.0946	–
in n-propanol	0.057	0.0698	0.0803	0.0938	0.116	0.135	0.162	0.207	–
in water	0.00718	0.00807	0.00935	0.0126	0.0205	0.0307	0.0554	0.0905	–
